# Source: patent publication US20090247520A1, “INHIBITORS OF ANTIGEN RECEPTOR-INDUCED NF-kappa B ACTIVATION” (The Burnham Institute for Medical Research, priority 2008, published 2009)
# Read-outs that look alike come from different tables or passages of the source.
# Tests used:
# [1] = tested on: PDB-induced IL-8 production; assay: PDBu-induced IL-8 production by HEK293 cells; format: cell-based; conditions: Homo sapiens
# Method: (§1) (A) Structures of two hit compounds, CID-2858522 (left) and CID-2998237 (right) are shown; (B, C) 293-NF-κB-luc cells were pretreated for 2 hrs with various concentration of either CID-2858522 (B) or CID-29982387 (C) and then stimulated with TNF (10 ng/mL) or PMA/lonomycin (10 ng/mL; 5 ng/mL) for 16 h. Luciferase activity was measured and data were expressed as a percentage relative to control treatment with DMSO only (mean±SD; n=3). (D) 293-NF-κB-luc cells were pretreated for 2 h with various concentrations of CID-2858522 or CID-2998237, then stimulated with PMA/lonomycin for 16 h. IL-8 release into the medium was measured, expressing data as a percentage relative to control cultures treated with DMSO (mean±SD; n=3). (E) 293-NF-κB-luc cells were pretreated with CID-2858522 and then stimulated with PDBu for 16 h, IL-8 production and NF-κB luciferase activity were measured as above. (F) 293-NF-κB-luc cells were pretreated for 2 h with various concentrations of CID-2858522 or a PKC inhibitor (Bisindolylmaleimide I) at 1 μM followed by PMA/Ionomycin (10 ng/mL) stimulation for 2 h, then p65-DNA-binding activity was measured in nuclear extracts (10 μg protein), expressing data as fold-increase relative to unstimulated cells (mean±SD; n=3).
# Lymphokine measurements. […]
# [2] = tested on: TNF-induced NF-κB reporter gene activity; assay: TNF-induced NF-κB reporter counter-screen in HEK293-NFκB-Luc cells; format: cell-based; conditions: TNF 10 ng/mL; CID-2858522 at concentrations as high as 4 μM
# Method: as §1
# Counter Screening and Secondary Assays. […] Luciferase activity was measured using Britelite kit (Perkin Elmer). […]
# [3] = tested on: p65-DNA binding activity induced by TNF; assay: NF-κB p65 DNA-binding activity induced by TNF; format: cell-based; conditions: data not shown
# Method: NF-κB DNA-binding activity assays. Nuclear extracts were prepared from 10 cm^2 plates of confluent cells using a kit (Active Motif, Carsbad, Calif.). The total protein content of nuclear fractions was quantified by the Bradford method, followed by storage at −80° C. NF-κB DNA-binding activity was measured in nuclear extracts (10 μg protein) using an immunoassay method (TransAM Kit [Active Motif]) employing 96 well plates coated with double-strand oligodeoxynucleotides containing NF-κB consensus binding site (5′-[…]-3′) and anti-p65 antibody, which was detected by secondary horseradish peroxidase (HRP)-conjugated antibody, using a calorimetric substrate with absorbance read at 450 nm within 5 minutes using a spectrophotometer, SpectraMax M5 (Molecular Devices, Sunnyvale, Calif.).
# purified luciferase = target: T1, purified luciferase (Photinus pyralis, UniProt P08659); assay: Luciferase inhibition counter screen, in vitro enzymatic assay; format: biochemical; conditions: not shown
# T1 construct: purchased Perkin Elmer
# Method: Counter Screening and Secondary Assays. To counter-screen for inhibitors of the TNF pathway, HEK293-NFκB-Luc cells were seeded at 10^5 cells per well in 90 μL medium in white 96-well plates (Greiner Bio-One) and cultured overnight, before adding compounds (5 μL in medium) to cells. After 2 h incubation, 5 μL TNF (200 ng/mL) (R&D Systems) was added (final concentration 10 ng/mL) and cells were incubated for 16 h. Luciferase activity was measured using Britelite kit (Perkin Elmer). To counter-screen for inhibitors of NF-κB induced by TLR4, CD40, NOD1, NOD2, cIAP2/MALT, or XIAP/TAB, the 293-NF-κB-luc cells cultured in 96 well plates as above were pretreated with compounds for 2 h and then transfected using Lipofectamine 2000 with various plasmids including pcDNA3 (“empty vector” control) or plasmids encoding CD4-TLR4, CD40, NOD1, NOD2, cIAP2/MALT, XIAP/TAB, using 0.2 μL of transfection reagent containing 100 ng DNA per well. Cells were cultured in medium containing CID-2858522 or other compounds and luciferase activity was measured 48 h later. […] Reactions were then initiated by addition of 50 μL 160 nM ATP (Sigma) in PBS and luciferase activity was measured 2 h later using a luminometer (LJL Biosystems, Sunnyvale, Calif.).
# T1 sequence (P08659 whole entry, species assumed): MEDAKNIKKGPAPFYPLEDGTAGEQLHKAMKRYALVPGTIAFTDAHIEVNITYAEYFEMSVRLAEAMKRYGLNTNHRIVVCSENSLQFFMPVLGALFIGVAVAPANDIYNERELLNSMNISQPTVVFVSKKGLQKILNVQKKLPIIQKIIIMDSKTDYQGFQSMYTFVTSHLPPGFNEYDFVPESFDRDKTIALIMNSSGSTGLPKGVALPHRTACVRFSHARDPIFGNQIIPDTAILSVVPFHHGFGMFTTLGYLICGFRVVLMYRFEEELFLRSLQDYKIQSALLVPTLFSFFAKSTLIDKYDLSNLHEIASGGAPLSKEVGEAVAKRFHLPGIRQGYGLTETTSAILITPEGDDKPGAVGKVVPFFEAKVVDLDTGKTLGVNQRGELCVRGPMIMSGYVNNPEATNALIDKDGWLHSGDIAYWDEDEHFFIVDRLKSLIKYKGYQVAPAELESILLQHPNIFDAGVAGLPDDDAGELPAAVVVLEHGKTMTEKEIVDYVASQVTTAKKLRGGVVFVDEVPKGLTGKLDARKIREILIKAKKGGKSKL
smiles,measurement,setting,value
"Cc1cc2nc(NCCCO)n(CC(=O)c3cc(C(C)(C)C)c(O)c(C(C)(C)C)c3)c2cc1C [Compound 1, 2-(2-(3-Hydroxypropylamino)-5,6-dimethyl-1H-benzo[d]imidazol-1-yl)-1-(3,5-di-tert-butyl-4-hydroxyphenyl)ethanone]",IC50,"[1]; read-out: IC50, PDB-induced IL-8 production",100 nM
same,IC50,"[1]; read-out: IC50, PDBu-induced IL-8 secretion (cellular potency)",< 100 nM
same,inhibition of TNF-induced NF-κB reporter gene activity,[2],did not inhibit
same,block of p65-DNA binding activity induced by TNF,[3],did not block
same,inhibition of luciferase activity,purified luciferase,did not inhibit
